{"source": "paper PMC10721899", "about": "“The bactericidal and antibiofilm effects of a lysine-substituted hybrid peptide, CM-10K14K, on biofilm-forming Staphylococcus epidermidis” (Scientific Reports, 2023)", "key": {"[1]": {"test_system": "S. epidermidis ATCC 35984", "assay": "Biofilm inhibition assay, crystal violet staining", "format": "cell-based, Staphylococcus epidermidis", "method": "The biofilm biomass was assessed using crystal violet staining to determine the ability of peptides to inhibit bacterial formation of biofilm ^1. Overnight S. epidermidis cultures were adjusted to an OD620 of 0.1 in TSB. An equal volume (50 µL) of bacterial suspension (~10^8 CFU/mL) was incubated with 2-fold serially diluted peptides (0.98-250 μg/mL) at 37°C for 24 h in 96-well plates. Supernatants were discarded after incubation, and wells were gently rinsed at least twice with 0.85% NaCl to remove planktonic cells. Adherent biofilms were fixed for 30 minutes with 95% ethanol, then the fixative solution was removed. The fixed biofilms were dried thoroughly and stained with addition of 150 µL of 0.1% crystal violet (CV) to each well containing biofilm, along with its respective control media. After 15 min, CV solutions were removed and wells were gently rinsed three times with 400 μL of 0.85% NaCl without disturbing the biofilm. The plates were left to dry for 30 min before adding 200 μL of 95% ethanol to each well to solubilize the bound CV with vigorous pipetting. The biofilm mass was evaluated by observing OD at 570 nm using a Multiskan SkyHigh microplate reader ^2. Results were expressed as the percentage of biofilm mass compared to that of control."}, "[2]": {"test_system": "S. epidermidis ATCC 35984 (biofilm-producer)", "assay": "microbe, parasite or virus in culture", "format": "cell-based, Staphylococcus epidermidis", "settings": "for MIC, minimum inhibitory concentration: MHB; for MBC, minimum bactericidal concentration: colony count from non-turbid MIC wells", "method": "(§1) The S. epidermidis ATCC 35984 (biofilm-producer), Staphylococcus aureus ATCC 25923, Enterococcus faecalis ATCC 29219, Acinetobacter baumannii ATCC 19606, Klebsiella pneumoniae ATCC 27736 and Pseudomonas aeruginosa ATCC 27853 were grown overnight on trypticase soy agar (TSA; BD Bacto™), then subcultured in TSB and incubated at 37 °C for 16–18 h before each experiment. Stock bacterial cultures were kept frozen at − 80 °C in trypticase soy broth (TSB; BD Bacto™, USA) containing 20% glycerol.\n(§2) The antimicrobial activity of peptides against S. epidermidis and five strains of both gram-positive and gram-negative bacteria frequently involved in catheter-related infections including S. aureus, E. faecalis, A. baumannii, K. pneumoniae, and P. aeruginosa was compared to that of vancomycin (Vancomycin hydrochloride, BioChemica, UK) using a modified version of the National Committee for Clinical Laboratory Standards (NCCLS) broth microdilution method. Two-fold serially diluted (0.98–250 µg/mL) aliquots of the peptides were prepared in type 1 water and added to sterile 96-well polypropylene microplates (Nunclon Delta-Treated; Thermo Scientific™, Denmark) in a volume of 50 µL, followed by the addition of 50 µL of bacterial suspensions (2–7 × 10^5 CFU/mL) in Mueller Hinton Broth (MHB; BD Difco™, USA). Uninoculated MHB and bacterial cultures without peptides were used as negative and positive controls, respectively. After culturing in an incubator shaker for 24 h at 37 °C, the lowest concentration at which the peptide inhibited bacterial growth as observed by visual inspection was taken as the minimal inhibitory concentration (MIC)[22]. Fifty microliter aliquots from each non-turbid well identified in the MIC experiment were plated on TSA for determination of minimal bactericidal concentration (MBC) by colony count assay. […] All experiments were performed in triplicate."}, "[3]": {"test_system": "S. epidermidis ATCC 35984", "assay": "Biostability: growth inhibition in the presence of proteinase K", "format": "cell-based, Staphylococcus epidermidis", "settings": "0.01 mg/mL proteinase K", "method": "Proteolysis of peptide by proteinase K was determined using the growth inhibition assay described by Jia et al.[28] with some modifications. […] After 6 and 24 h of incubation, the growth inhibitory effect was determined by measuring the absorbance at 620 nm using a Multiskan SkyHigh microplate reader. The percentage of relative survival rate was calculated as follows: Relativesurvivalrate%=AbsTreated/AbsUntreated×100 where AbsTreated was absorbance value of S. epidermidis cells after incubation with peptide in the presence of proteinase K, AbsUntreated was that of S. epidermidis cells incubated with ultrapure water in the presence of proteinase K."}, "[4]": {"test_system": "human red blood cells (hRBCs)", "assay": "Hemolytic activity", "format": "cell-based", "settings": "1 h at 37 °C, relative to Triton-X control", "method": "The quantity of hemoglobin released by treatment was used as a measure of a peptide’s hemolytic activity against human red blood cells (hRBCs)[23]. Venous blood was collected from a healthy volunteer in plastic blood collection tubes with lithium heparin (BD Vacutainer™, USA) and centrifuged at 2000×g for 5 min to separate the plasma and buffy coat. The hRBCs obtained were washed at least three times and diluted to 4% (vol/vol) in phosphate-buffered saline (PBS; Caisson Laboratories, USA). The same volume of the hRBC suspension (50 µL) was incubated with twofold, serially diluted concentrations (0.98–250 μg/mL) of peptide dissolved in PBS for 1 h at 37 °C. The hRBCs incubated in 0.1% Triton X-100 and PBS were used as positive (100% hemolysis) and negative (0% hemolysis) controls, respectively. The release of hemoglobin into the supernatants was monitored by measurement of absorbance at 405 nm using a Multiskan SkyHigh microplate reader (Thermo Scientific™, Singapore). The percentage of hemolysis was calculated as previously described."}, "[5]": {"test_system": "Enterococcus faecalis ATCC 29219", "format": "cell-based", "method": "as §1, §2"}, "[6]": {"test_system": "Klebsiella pneumoniae ATCC 27736", "format": "cell-based", "method": "as §1, §2"}, "[7]": {"test_system": "Pseudomonas aeruginosa ATCC 27853", "format": "cell-based", "method": "as §1, §2"}, "[8]": {"test_system": "Staphylococcus aureus ATCC 25923", "format": "cell-based", "method": "as §1, §2"}, "[9]": {"test_system": "Acinetobacter baumannii ATCC 19606", "format": "cell-based", "method": "as §1, §2"}, "Cytotoxicity, MTT assay": {"assay": "Cytotoxicity, MTT assay", "format": "cell-based, mouse", "settings": "mouse, L929 mouse fibroblast cells (NCTC clone 929), L929, 24 h, read-out: cell viability", "method": "(§3) The cytotoxicity of the candidate peptide on L929 mouse fibroblast cell lines (NCTC clone 929) were evaluated using the 3-(4,5-dimethylthiazol-2-yl)-2,5-diphenyltetrazolium bromide (MTT) assay following the published protocol. L929 cells (3–5 × 10^4) in RPMI 1640 medium, supplemented with 10% (vol/vol) heat-inactivated fetal bovine serum, 2 mM L-glutamine, 0.2% (wt/vol) sodium bicarbonate, 100 U/mL penicillin and […] streptomycin were placed into each well of 96-well plates and incubated in 5% CO2 at 37 °C overnight. After removal of media, the two-fold serially diluted peptide was added to achieve final concentrations of 0.98–250 µg/mL. Plates were then incubated at 37 °C under 5% CO2 for 24 h. The RPMI 1640 medium with and without L929 seeded cells were used as positive and negative controls, respectively. After treatment, MTT (Sigma-Aldrich, USA) was added to a final concentration of 0.5 mg/mL and suspensions incubated for 4 h at 37 °C under 5% CO2. Supernatants from each well were then discarded, and 150 µl of dimethyl sulfoxide (DMSO; Fisher BioReagents™, UK) was added and gently mixed to dissolve the crystallized formazan. Absorbance was measured at 570 nm using a Multiskan SkyHigh microplate reader. Cell viability (%) was estimated according to the following formula: Cellviability%=AbsTreated-AbsBlank/AbsUntreated-AbsBlank×100"}, "[10]": {"test_system": "L929 mouse fibroblast cells", "assay": "Cytotoxicity, MTT assay", "format": "cell-based", "settings": "MTT, 24 h", "method": "as §3"}}, "note": "Where a name gives a salt, the structure may show the parent alone. Ends that are not written are not given here.", "data": [{"compound": "CN[C@H](CC(C)C)C(=O)N[C@H]1C(=O)N[C@@H](CC(N)=O)C(=O)N[C@H]2C(=O)N[C@H]3C(=O)N[C@H](C(=O)N[C@H](C(=O)O)c4cc(O)cc(O)c4-c4cc3ccc4O)[C@H](O)c3ccc(c(Cl)c3)Oc3cc2cc(c3O[C@@H]2O[C@H](CO)[C@@H](O)[C@H](O)[C@H]2O[C@H]2C[C@](C)(N)[C@H](O)[C@H](C)O2)Oc2ccc(cc2Cl)[C@H]1O", "note": "[Vancomycin, Vancomycin hydrochloride, reference compound]", "values": [{"measurement": "effect on biofilm formation", "setting": "[1]; at its MIC and MBC, 24 h", "result": "slightly induced biofilm formation"}, {"measurement": "reduction of the biomass of biofilms", "setting": "[1]; treatment with > 15.63 µg/mL for 24 h", "result": "more than 90%"}, {"measurement": "MIC", "setting": "[2]; Staphylococcus epidermidis, ATCC35984, MHB, 24 h at 37 °C, read-out: MIC, minimum inhibitory concentration", "result": 3.91, "unit": "µg/mL"}, {"measurement": "MBC", "setting": "[2]; Staphylococcus epidermidis, ATCC35984, colony count from non-turbid MIC wells, read-out: MBC, minimum bactericidal concentration", "result": 7.81, "unit": "µg/mL"}]}, {"compound": "H-KWKLFKKIGAVLKVL-NH2 [C(1–7)M(2–9), KWKLFKKIGAVLKVL-NH2, reference compound]", "values": [{"measurement": "antibacterial activity in the presence of proteinase K", "setting": "[3]; 24-h incubation, CM-10K14K at 31.25 and 62.5 µg/mL", "result": "lost its ability to kill bacteria"}, {"measurement": "concentration inhibiting bacterial growth in the presence of proteinase K", "setting": "[3]; 6 h of incubation", "result": "at least its MIC"}, {"measurement": "MIC, minimum inhibitory concentration", "setting": "[2]; 24 h at 37 °C", "result": 7.81, "unit": "µg/mL"}, {"measurement": "MBC, minimum bactericidal concentration", "setting": "[2]", "result": 7.81, "unit": "µg/mL"}, {"measurement": "HC50, concentration of peptide that causes 50% hemolysis", "setting": "[4]", "result": "88.89 ± 4.62", "unit": "µg/mL"}]}, {"compound": "KWKLFKKIGAVLKVLA-NH2 [CM-A, KWKLFKKIGAVLKVLA-NH2]", "values": [{"measurement": "MIC, minimum inhibitory concentration", "setting": "[2]; 24 h at 37 °C", "result": 7.81, "unit": "µg/mL"}, {"measurement": "MBC, minimum bactericidal concentration", "setting": "[2]", "result": 15.63, "unit": "µg/mL"}, {"measurement": "HC50, concentration of peptide that causes 50% hemolysis", "setting": "[4]", "result": "42.58 ± 1.98", "unit": "µg/mL"}]}, {"compound": "KWKLFKKIGKVLKKL-NH2 [CM-10K14K, KWKLFKKIGKVLKKL-NH2]", "values": [{"measurement": "MBC", "setting": "[5]", "result": 31.25, "unit": "µg/mL"}, {"measurement": "MIC", "setting": "[5]", "result": 31.25, "unit": "µg/mL"}, {"measurement": "MBC", "setting": "[6]", "result": 31.25, "unit": "µg/mL"}, {"measurement": "MIC", "setting": "[6]", "result": 15.63, "unit": "µg/mL"}, {"measurement": "MBC", "setting": "[7]", "result": 62.5, "unit": "µg/mL"}, {"measurement": "MIC", "setting": "[7]", "result": 15.63, "unit": "µg/mL"}, {"measurement": "MBC", "setting": "[8]", "result": 7.81, "unit": "µg/mL"}, {"measurement": "MIC", "setting": "[8]", "result": 7.81, "unit": "µg/mL"}, {"measurement": "MBC", "setting": "[9]", "result": 15.63, "unit": "µg/mL"}, {"measurement": "MIC", "setting": "[9]", "result": 7.81, "unit": "µg/mL"}, {"measurement": "MIC, minimum inhibitory concentration", "setting": "[2]; 24 h at 37 °C", "result": 3.91, "unit": "µg/mL"}, {"measurement": "MBC, minimum bactericidal concentration", "setting": "[2]", "result": 7.81, "unit": "µg/mL"}, {"measurement": "viability at 24 h", "setting": "Cytotoxicity, MTT assay; at the MBC", "result": "92.9 ± 1.82", "unit": "%"}, {"measurement": "viability at 24 h, 3.91 μg/mL", "setting": "Cytotoxicity, MTT assay; at the MIC", "result": 100, "unit": "%"}, {"measurement": "IC50 on L929 cells", "setting": "[10]", "result": "56.53 ± 1.84", "unit": "µg/mL"}, {"measurement": "HC50, concentration of peptide that causes 50% hemolysis", "setting": "[4]", "result": "561.90 ± 88.19", "unit": "µg/mL"}]}, {"compound": "KWKLFKKIGKVLKVL-NH2 [CM-10K, KWKLFKKIGKVLKVL-NH2]", "values": [{"measurement": "MIC, minimum inhibitory concentration", "setting": "[2]; 24 h at 37 °C", "result": 3.91, "unit": "µg/mL"}, {"measurement": "MBC, minimum bactericidal concentration", "setting": "[2]", "result": 7.81, "unit": "µg/mL"}, {"measurement": "HC50, concentration of peptide that causes 50% hemolysis", "setting": "[4]", "result": "85.78 ± 9.01", "unit": "µg/mL"}]}, {"compound": "VWKLFKKIGAVLKKL-NH2 [CM-1V14K, VWKLFKKIGAVLKKL-NH2]", "values": [{"measurement": "MIC, minimum inhibitory concentration", "setting": "[2]; 24 h at 37 °C", "result": 7.81, "unit": "µg/mL"}, {"measurement": "MBC, minimum bactericidal concentration", "setting": "[2]", "result": 15.63, "unit": "µg/mL"}, {"measurement": "HC50, concentration of peptide that causes 50% hemolysis", "setting": "[4]", "result": "131.70 ± 9.23", "unit": "µg/mL"}]}, {"compound": "VWKLFKKIGKVLKKL-NH2 [CM-1V10K14K, VWKLFKKIGKVLKKL-NH2]", "values": [{"measurement": "MIC, minimum inhibitory concentration", "setting": "[2]; 24 h at 37 °C", "result": 3.91, "unit": "µg/mL"}, {"measurement": "MBC, minimum bactericidal concentration", "setting": "[2]", "result": 15.63, "unit": "µg/mL"}, {"measurement": "HC50, concentration of peptide that causes 50% hemolysis", "setting": "[4]", "result": "118.90 ± 8.19", "unit": "µg/mL"}]}]}
